The values below come from US8772313B2, “Benzenesulfonyl or sulfonamide compounds suitable for treating disorders that respond to the modulation of the serotonin 5-HT6 receptor” (Abbott Laboratories, priority 2010, dated 2014).

The target in one assay is T1, h-5-HT6 receptor (Homo sapiens, UniProt P50406).
T1 construct: expressed in transfected cells
Briefly: 5-HT6 receptor binding assay (displacement of [3H]-LSD). To be noted: membranes of HEK293 cells expressing h-5-HT6 receptor, 1 nM [3H]-LSD. As to the method:
Displacement of radioligands binding to the following cloned human receptors
Cells from stable clonal cell lines expressing the corresponding receptor (5-HT6, α1-adrenergic, dopamine D2 or histamine H1 receptors) were washed with PBS (w/o Ca^++, Mg^++) and harvested in PBS with 0.02% EDTA. The cells were collected by centrifugation at 500 g for 10 min. at 4° C., washed with PBS and centrifuged (500 g, 10 min. 4° C.). The pellets were stored at −80° C. until use. For membrane preparation, the thawed cell pellet was resuspended in ice-cold sucrose buffer (0.25 M sucrose, 10 mM Hepes (pH 7.4), 1 mM Phenylmethylsulfonyl fluoride (PMSF) in DMSO, 5 μg/ml Pepstatin-A, 3 mM EDTA, 0.025% Bacitracin) and homogenized with a Branson Sonifier W-250 (Settings: Timer 4; Output Control 3; Duty Cycle constant; 2 to 3 cycles). Cell disruption was checked with the aid of a microscope. Remaining unbroken cells were pelleted at 1.000 g for 10 min. at 4° C. The sucrose buffer supernatant was then centrifuged at 60.000 g for 1 h at 4° C. (Beckman Ultrazentrifuge XL 80). The pellet was resuspended in 30 ml ice-cold Tris buffer (20 mM TRIS (pH 7.4), 5 μg/ml Pepstatin A, 0.1 mM PMSF, 3 mM EDTA) by pipetting through a 10 ml serological pipet and centrifuged for 1 h at 4° C. at 60.000 g. A final resuspension was performed in a small volume of ice-cold Tris buffer (see above) by pressing through a serological pipet followed by ultrasonic treatment with a Branson Sonifier W-250 (Settings: Timer 1; Output Control 3; Duty Cycle constant; 1 cycle). Protein concentration was determined (BCA-Kit; Pierce) and aliquots stored at −80° C. or in liquid nitrogen for long-term storage.
All receptor binding experiments were carried out in the corresponding assay buffer in a total volume of 200 μl in the presence of various concentrations of test compound (10^−5 M to 10^−9 M, tenfold serial dilution, duplicate determinations). The assays were terminated by filtration on polyethylenimine (PEI 0.1% or 0.3%) presoaked Packard Unifilter Plates (GF/C or GF/B) with a Tomtec MachIII U 96 well-plate harvester. After the plates had been dried for 2 h at 55° C. in a drying chamber scintillation cocktail (BetaPlate Scint; PerkinElmer) was added. Radioactivity was measured in a Microbeta Trilux two hours after the addition of the scintillation mixture. Data derived from liquid scintillation counting were analysed by iterative non-linear regression analysis with the use of the Statistical Analysis System (SAS): a program similar to “LIGAND” as described by Munson and Rodbard (Analytical Biochemistry 107, 220-239 (1980).
HEK293 cells stably expressing the h-5-HT6 receptor (NCBI Reference Sequence XM 001435) were cultured in RPMI1640 medium supplemented with 25 mM HEPES, 10% fetal calf serum and 1-2 mM glutamine. The membrane preparation was performed as described in section 1. […] Non-specific binding was defined with 1 μM methiothepin. The binding reaction was carried out for 3.5 h at room temperature. During the incubation, the plates were shaken on a plate shaker at 100 rpm and terminated by filtration on Packard Unifilter GF/C (0.1% PEI) plates, followed by 2 wash cycles with ice-cold 50 mM Tris-HCl, 5 mM CaCl2.
Data derived from liquid scintillation counting were analyzed by iterative non-linear regression analysis with the use of the Statistical Analysis System (SAS): a program similar to “LIGAND” as described by Munson and Rodbard (Anal. Biochem. 1980, 107, 220-239). Fitting was performed according to formulae described by Feldman (Anal. Biochem. 1972, 48, 317-338). IC50, nH and Ki values were expressed as geometrical mean.

In another assay the target is T2, dopamine D2 receptor (Homo sapiens, UniProt P14416).
T2 construct: expressed in transfected cells
T2 sequence (P14416 whole entry): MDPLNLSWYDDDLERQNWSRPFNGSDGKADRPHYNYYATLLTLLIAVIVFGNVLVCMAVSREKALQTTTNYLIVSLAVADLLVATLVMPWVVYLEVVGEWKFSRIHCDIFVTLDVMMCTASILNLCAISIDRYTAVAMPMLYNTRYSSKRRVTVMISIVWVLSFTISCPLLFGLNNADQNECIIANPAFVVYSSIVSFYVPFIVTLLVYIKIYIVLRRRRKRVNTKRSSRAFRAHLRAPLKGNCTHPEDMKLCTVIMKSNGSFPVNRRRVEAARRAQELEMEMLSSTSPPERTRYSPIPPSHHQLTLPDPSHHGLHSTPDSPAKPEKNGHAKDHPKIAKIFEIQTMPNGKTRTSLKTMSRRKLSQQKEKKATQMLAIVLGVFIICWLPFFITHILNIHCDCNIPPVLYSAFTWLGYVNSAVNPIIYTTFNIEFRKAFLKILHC
Nature of the assay: Dopamine D2 receptor binding assay (displacement of [125I]-iodospiperone). To be noted: saturation binding experiments, HEK293 D2 membranes; read-out: KD of radioligand. The method, then:
The pellets were stored at −80° C. until use. […] (Beckman Ultrazentrifuge XL 80).
Non-specific binding was defined with 1 μM haloperidol.

Structures can show the parent of a compound that is named as a salt. Some results are limits rather than exact numbers.

T1 sequence (P50406 whole entry): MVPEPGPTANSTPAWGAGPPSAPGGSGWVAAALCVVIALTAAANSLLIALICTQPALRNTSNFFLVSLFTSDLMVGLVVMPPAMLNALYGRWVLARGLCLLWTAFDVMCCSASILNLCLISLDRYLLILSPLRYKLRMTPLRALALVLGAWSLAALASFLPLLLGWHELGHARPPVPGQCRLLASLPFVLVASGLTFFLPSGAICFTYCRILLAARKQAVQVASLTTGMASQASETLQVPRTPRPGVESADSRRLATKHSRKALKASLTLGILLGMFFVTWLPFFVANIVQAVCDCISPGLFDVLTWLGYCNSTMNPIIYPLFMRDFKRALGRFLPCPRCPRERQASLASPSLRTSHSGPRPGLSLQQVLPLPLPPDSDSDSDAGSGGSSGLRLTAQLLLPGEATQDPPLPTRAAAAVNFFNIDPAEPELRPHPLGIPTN

What is called Ki is the dissociation constant of the complex between target and ligand, obtained from inhibition or displacement. A higher Ki goes with lower affinity. In turn, `COCc1ccccc1NS(=O)(=O)c1ccc(OC)c(C2CCNCC2)c1` [Example 6, 4-Methoxy-N-(2-methoxymethyl-phenyl)-3-piperidin-4-yl-benzenesulfonamide hydrochloride] displayed an inhibitory constant (Ki) at h-5-HT6 receptor of less than 100 nM.

Turning to `COc1ccc(S(=O)(=O)Nc2cc(C)ccc2OC(F)F)cc1C1CCN(C)C1` (centres unmarked) [Example 2, N-(2-Difluoromethoxy-5-methyl-phenyl)-4-methoxy-3-(1-methyl-pyrrolidin-3-yl)-benzenesulfonamide hydrochloride], at h-5-HT6 receptor, the inhibition constant Ki is less than 10 nM.

The term Kd denotes the equilibrium constant for the complex coming apart. Consider iodospiperone [[^125I]-iodospiperone], for which the Kd on dopamine D2 receptor was 0.22 nM.

`COc1ccc(S(=O)(=O)Nc2cc(C)ccc2OC(F)F)cc1C1CCNC1` (centres unmarked) [Example 1, N-(2-Difluoromethoxy-5-methyl-phenyl)-4-methoxy-3-pyrrolidin-3-yl-benzenesulfonamide hydrochloride] yielded a Ki on h-5-HT6 receptor of less than 10 nM.

At h-5-HT6 receptor, `COCc1ccccc1NS(=O)(=O)c1ccc(OC)c(C2CCNC2)c1` (centres unmarked) [Example 3, 4-Methoxy-N-(2-methoxymethyl-phenyl)-3-pyrrolidin-3-yl-benzenesulfonamide hydrochloride] showed an inhibitory constant (Ki) of less than 20 nM.

In turn, `COc1ccc(S(=O)(=O)Nc2cc(C)ccc2OC(F)F)cc1C1CCN(C)CC1` [Example 7, N-(2-Difluoromethoxy-5-methyl-phenyl)-4-methoxy-3-(1-methyl-piperidin-4-yl)-benzenesulfonamide hydrochloride] had an inhibition constant (Ki) on h-5-HT6 receptor of less than 10 nM.

For `COc1ccc(S(=O)(=O)Nc2ccc(C)cc2OC(F)F)cc1C1CCNCC1` [Example 5, N-(2-Difluoromethoxy-4-methyl-phenyl)-4-methoxy-3-piperidin-4-yl-benzenesulfonamide hydrochloride], on h-5-HT6 receptor, the inhibition constant Ki is less than 20 nM.

`COc1ccc(S(=O)(=O)Nc2cc(C)ccc2OC(F)F)cc1C1CCNCC1` [Example 4, N-(2-Difluoromethoxy-5-methyl-phenyl)-4-methoxy-3-piperidin-4-yl-benzenesulfonamide hydrochloride] returned a Ki on h-5-HT6 receptor of less than 10 nM.
